Assay results as given in PubChem BioAssay (NCI).
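The compound was tested at five concentrations on cells cultured in 96-well plates, with a 48-hour exposure period. Abbreviation: GI50, concentration required for 50% inhibition of growth. TGI: total growth inhibition.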

How the values were obtained:
Assay in all cases: inhibition of tumour cell growth, NCI panel, 48 h
A498 renal = test system: A498 renal
MDA-MB-435 = test system: MDA-MB-435
SF-295 CNS = test system: SF-295 CNS
PC-3 prostate = test system: PC-3 prostate
786-0 renal = test system: 786-0 renal
KM12 colon = test system: KM12 colon
EKVX NSCLC = test system: EKVX NSCLC
SNB-19 CNS = test system: SNB-19 CNS
HS 578T breast = test system: HS 578T breast
MOLT-4 leukemia = test system: MOLT-4 leukemia
SW-620 colon = test system: SW-620 colon
T-47D breast = test system: T-47D breast
SK-MEL-5 melanoma = test system: SK-MEL-5 melanoma
SN12C renal = test system: SN12C renal
NCI-H226 lung = test system: NCI-H226 lung
HL-60(TB) leukemia = test system: HL-60(TB) leukemia
MALME-3M melanoma = test system: MALME-3M melanoma
CCRF-CEM leukemia = test system: CCRF-CEM leukemia
LOX IMVI melanoma = test system: LOX IMVI melanoma
RPMI-8226 leukemia = test system: RPMI-8226 leukemia
A549 NSCLC = test system: A549 NSCLC
SR leukemia = test system: SR leukemia
DU-145 prostate = test system: DU-145 prostate
ACHN renal = test system: ACHN renal
HT29 colon = test system: HT29 colon
UO-31 renal = test system: UO-31 renal
MCF7 breast = test system: MCF7 breast
OVCAR-3 ovarian = test system: OVCAR-3 ovarian
NCI/ADR-RES ovarian = test system: NCI/ADR-RES ovarian
SK-MEL-2 melanoma = test system: SK-MEL-2 melanoma
U251 CNS = test system: U251 CNS
HOP-92 NSCLC = test system: HOP-92 NSCLC
HCT-116 colon = test system: HCT-116 colon
UACC-62 melanoma = test system: UACC-62 melanoma
IGROV1 ovarian = test system: IGROV1 ovarian
HCT-15 colon = test system: HCT-15 colon
COLO 205 colon = test system: COLO 205 colon
RXF 393 renal = test system: RXF 393 renal
NCI-H460 lung = test system: NCI-H460 lung
HOP-62 NSCLC = test system: HOP-62 NSCLC
SK-MEL-28 melanoma = test system: SK-MEL-28 melanoma
OVCAR-5 ovarian = test system: OVCAR-5 ovarian
K-562 leukemia = test system: K-562 leukemia
SK-OV-3 ovarian = test system: SK-OV-3 ovarian
HCC-2998 colon = test system: HCC-2998 colon
CAKI-1 renal = test system: CAKI-1 renal
OVCAR-4 ovarian = test system: OVCAR-4 ovarian
UACC-257 melanoma = test system: UACC-257 melanoma
M14 melanoma = test system: M14 melanoma
NCI-H522 lung = test system: NCI-H522 lung
BT-549 breast = test system: BT-549 breast
TK-10 renal = test system: TK-10 renal
NCI-H23 lung = test system: NCI-H23 lung
SF-539 CNS = test system: SF-539 CNS
SNB-75 CNS = test system: SNB-75 CNS
SF-268 CNS = test system: SF-268 CNS
OVCAR-8 ovarian = test system: OVCAR-8 ovarian
MDA-MB-231 breast = test system: MDA-MB-231 breast

`CCCSc1ccc2nc(NC(=O)OC)[nH]c2c1` showed a GI50 (A498 renal) of 258 nM, a TGI (A498 renal) of 5030 nM and a GI50 (MDA-MB-435) of 34.8 nM. The TGI (MDA-MB-435) was 202 nM, the GI50 (SF-295 CNS) was 290 nM and the TGI (SF-295 CNS) was greater than 32800 nM. It also gave a GI50 (PC-3 prostate) of 354 nM, a TGI (PC-3 prostate) greater than 100000 nM and a GI50 (786-0 renal) of 634 nM. It also gave a TGI (786-0 renal) greater than 100000 nM, a GI50 (KM12 colon) of 206 nM and a TGI (KM12 colon) greater than 100000 nM. The GI50 (EKVX NSCLC) was greater than 37000 nM, the TGI (EKVX NSCLC) was greater than 100000 nM and the GI50 (SNB-19 CNS) was 525 nM. It also gave a TGI (SNB-19 CNS) greater than 100000 nM, a GI50 (HS 578T breast) of 378 nM and a TGI (HS 578T breast) greater than 100000 nM. It also gave a GI50 (MOLT-4 leukemia) of 547 nM, a TGI (MOLT-4 leukemia) greater than 100000 nM and a GI50 (SW-620 colon) of 223 nM. For the same compound, the TGI (SW-620 colon) was greater than 100000 nM, the GI50 (T-47D breast) was 298 nM and the TGI (T-47D breast) was greater than 100000 nM. For the same compound, the GI50 (SK-MEL-5 melanoma) was 290 nM, the TGI (SK-MEL-5 melanoma) was greater than 100000 nM and the GI50 (SN12C renal) was 823 nM. The TGI (SN12C renal) was greater than 100000 nM, the GI50 (NCI-H226 lung) was 456 nM and the TGI (NCI-H226 lung) was 5970 nM. It also gave a GI50 (HL-60(TB) leukemia) of 228 nM, a TGI (HL-60(TB) leukemia) of 791 nM and a GI50 (MALME-3M melanoma) of 425 nM. The TGI (MALME-3M melanoma) was greater than 100000 nM, the GI50 (CCRF-CEM leukemia) was 276 nM and the TGI (CCRF-CEM leukemia) was greater than 100000 nM. It also gave a GI50 (LOX IMVI melanoma) of 718 nM, a TGI (LOX IMVI melanoma) greater than 100000 nM and a GI50 (RPMI-8226 leukemia) of 378 nM. The TGI (RPMI-8226 leukemia) was greater than 100000 nM, the GI50 (A549 NSCLC) was 438 nM and the TGI (A549 NSCLC) was greater than 100000 nM. For the same compound, the GI50 (SR leukemia) was 48.2 nM, the GI50 (DU-145 prostate) was 336 nM and the TGI (DU-145 prostate) was greater than 71500 nM. The GI50 (ACHN renal) was 2640 nM, the TGI (ACHN renal) was greater than 100000 nM and the GI50 (HT29 colon) was 235 nM. The GI50 (UO-31 renal) was 890 nM, the TGI (UO-31 renal) was greater than 100000 nM and the GI50 (MCF7 breast) was 380 nM. It also gave a TGI (MCF7 breast) greater than 100000 nM, a GI50 (OVCAR-3 ovarian) of 196 nM and a TGI (OVCAR-3 ovarian) of 509 nM. The GI50 (NCI/ADR-RES ovarian) was 227 nM, the GI50 (SK-MEL-2 melanoma) was 538 nM and the TGI (SK-MEL-2 melanoma) was greater than 100000 nM. The GI50 (U251 CNS) was 411 nM, the TGI (U251 CNS) was greater than 100000 nM and the GI50 (HOP-92 NSCLC) was 712 nM. It also gave a TGI (HOP-92 NSCLC) greater than 100000 nM, a GI50 (HCT-116 colon) of 416 nM and a TGI (HCT-116 colon) greater than 100000 nM. The GI50 (UACC-62 melanoma) was 626 nM, the TGI (UACC-62 melanoma) was greater than 100000 nM and the GI50 (IGROV1 ovarian) was 1370 nM. It also gave a TGI (IGROV1 ovarian) greater than 100000 nM, a GI50 (HCT-15 colon) of 366 nM and a TGI (HCT-15 colon) greater than 100000 nM. The GI50 (COLO 205 colon) was 241 nM, the TGI (COLO 205 colon) was 702 nM and the GI50 (RXF 393 renal) was 208 nM. It also gave a TGI (RXF 393 renal) of 598 nM, a GI50 (NCI-H460 lung) of 342 nM and a TGI (NCI-H460 lung) greater than 100000 nM. The GI50 (HOP-62 NSCLC) was 380 nM, the TGI (HOP-62 NSCLC) was greater than 68700 nM and the GI50 (SK-MEL-28 melanoma) was 952 nM. The TGI (SK-MEL-28 melanoma) was greater than 100000 nM, the GI50 (OVCAR-5 ovarian) was 2080 nM and the TGI (OVCAR-5 ovarian) was greater than 100000 nM. The GI50 (K-562 leukemia) was 76.2 nM, the TGI (K-562 leukemia) was greater than 100000 nM and the GI50 (SK-OV-3 ovarian) was 285 nM. The TGI (SK-OV-3 ovarian) was 2910 nM, the GI50 (HCC-2998 colon) was 1010 nM and the TGI (HCC-2998 colon) was greater than 33800 nM. It also gave a TGI (CAKI-1 renal) greater than 100000 nM, a GI50 (OVCAR-4 ovarian) of 792 nM and a TGI (OVCAR-4 ovarian) greater than 100000 nM. It also gave a TGI (UACC-257 melanoma) greater than 100000 nM, a GI50 (M14 melanoma) of 260 nM and a GI50 (NCI-H522 lung) of 202 nM. For the same compound, the TGI (NCI-H522 lung) was 666 nM, the GI50 (BT-549 breast) was 1500 nM and the TGI (BT-549 breast) was greater than 100000 nM. It also gave a GI50 (TK-10 renal) greater than 100000 nM, a TGI (TK-10 renal) greater than 100000 nM and a GI50 (NCI-H23 lung) of 585 nM. The TGI (NCI-H23 lung) was greater than 100000 nM, the GI50 (SF-539 CNS) was 323 nM and the TGI (SF-539 CNS) was greater than 24400 nM. It also gave a GI50 (SNB-75 CNS) of 143 nM, a GI50 (SF-268 CNS) of 1340 nM and a TGI (SF-268 CNS) greater than 100000 nM. For the same compound, the GI50 (OVCAR-8 ovarian) was 486 nM, the TGI (OVCAR-8 ovarian) was greater than 100000 nM and the GI50 (MDA-MB-231 breast) was 1060 nM. It also gave a TGI (MDA-MB-231 breast) greater than 100000 nM.
